# Results from patent US6800659B2, “Compounds for modulating cell proliferation” (HSC Research and Development Limited Partnership, priority 2000, dated 2004).
# Legend:
# [1] = Retention in blood after I.V. injection; format: in vivo; conditions: 30 minutes after I.V. injection
# OCl-AML-3 cells = experiment: In vitro purging of OCl-AML-3 acute myeloid leukemia cells; format: cell-based; conditions: 2.5-5 hours exposure (FIG. 17)
# Protocol: For the purging assay, the cells were resuspended in complete medium with or without CR4 as indicated and incubated at 37° C., 5% CO2 for 0-5 hours. Cells were then washed thoroughly with medium to remove CR4, resuspended and plated in 1 ml volumes at 5×10^3 cells/ml, in the absence of exogenous growth factors, into 35 mm petri dishes (Nunc, Gibco) containing alpha MEM (Gibco) plus 10% FCS (Cansera Rexdale, ON.) in 0.9% (vol/vol) methylcellulose (Fluka, Switzerland). Cultures were set at 37° C., 5% CO2 in a humidified atmosphere. Colonies consisting of more than 20 cells were counted at 5 days or earlier using an inverted microscope.
# [2] = tested on: Philadelphia positive Z119 acute lymphoblastic leukemia cells; experiment: Colony growth of Z119 ALL cells in methylcellulose culture; format: cell-based, human; conditions: low nanomolar doses; colonies at 7 days (FIG. 3)
# Protocol: Z119 cells were plated in 1 ml volumes at a density of 1×10^4 cells/ml, in the absence of exogenous growth factors, into 35 mm petri dishes (Nunc, Gibco) containing IMDM (OCl, Toronto) plus 20% FCS (Cansera Rexdale, ON.) in 0.9% (vol/vol) methylcellulose (Fluka, Switzerland) with the indicated concentration of CR4. Cultures were set at 37° C., 5% CO2 in a humidified atmosphere. Colonies consisting of more than 20 cells were counted at 7 days or earlier using an inverted microscope.
# [3] = tested on: Philadelphia positive acute lymphoblastic leukemia (Ph+ ALL) cells; experiment: Colony growth of Philadelphia positive ALL cells in methylcellulose culture; format: cell-based, human
# Protocol: (§1) Ph+ ALL cells were plated in 1 ml volumes, in the absence of exogenous growth factors, into 35 mm petri dishes (Nunc, Gibco) containing alpha MEM (Gibco) plus 10% FCS (Cansera Rexdale, ON.) in 0.9% (vol/vol) methylcellulose (Fluka, Switzerland) with the indicated concentrations of CR4. Cultures were set at 37° C., 5% CO2 in a humidified atmosphere. Colonies consisting of more than 20 cells were counted at 12 days or earlier using an inverted microscope.
# as §1, with “ALL” for “Ph+ ALL”, “20%” for “10%”, “and” for “with”, “compound” for “CR4.”, “atmosphere” for “atmosphere.”
# as §1, with “ALL” for “Ph+ ALL”, “20%” for “10%”, “ON)” for “ON.)”, “0.90%” for “0.9%”, “and” for “with”, “compound.” for “CR4.”
# as §1, with “ALL” for “Ph+ ALL”, “20%” for “10%”, “and” for “with”, “CR24.” for “CR4.”, “9” for “12”
# as §1, with “ALL” for “Ph+ ALL”, “20%” for “10%”, “and” for “with”, “CR19.” for “CR4.”, “9” for “12”
structure (smiles),measurement,setting,value
"N#C/C(=C\C=C\c1ccc(O)c(O)c1)C(=O)NCc1ccccc1 [CR4, (E,E)-2-(benzylaminocarbonyl)-3-(3,4-dihydroxystyryl)acrylonitrile]",retention: presence in the blood,[1],still being detectable
same,killing of OCl-AML-3 cells,OCl-AML-3 cells; 25 μM,significant killing
same,killing of OCl-AML-3 cells,OCl-AML-3 cells; 50 μM,significant killing
same,inhibition of Z119 ALL cell proliferation and survival,[2],significant inhibition
same,wipeout of bcr-abl transformed Philadelphia positive cells,[3]; concentrations as low as 40 nM,> 90%
same,inhibition of Ph+ ALL cell proliferation and survival,"[3]; low nanomolar doses (35-100), colonies at 12 days (FIG. 2)",significant inhibition
